Results reported in patent US12214036B2, “Combination therapy comprising AXL/MER and PD-1/PD-L1 inhibitors” (Incyte Corporation, priority 2020, dated 2025).

System: CTG-1302 tumors
Assay: Sarcoma PDX model CTG-1302 (leiomyosarcoma)
Format: in vivo, athymic nude mice
Settings: CTG-1302, 10, 30, 100 mg/kg BID oral, FIG. 9B
From the text: MBT-2 cells were obtained from the Japanese Collection of Research Bioresources Cell Bank and were maintained in DMEM supplemented with 10% FBS. MC38 cells were obtained from the NCI. 4T1 cells were obtained from ATCC and maintained in RPMI media supplemented with 10% FBS. For MBT-2 experiments, 5×10^5 MBT-2 cells were inoculated subcutaneously into the right hind flank of 6- to 8-week-old C3H mice or athymic nude mice (Charles River Laboratories, Wilmington, Mass.). For MC38 studies, 12-week old female C57BL/6 mice were inoculated with brei of MC38 tumors (in-vivo passage 6) into the right hind flank. For 4T1 studies, 7.5×10^5 4 T1 cells were inoculated subcutaneously into the right hind flank of 6- to 8-week-old female BALB/c mice or athymic nude mice (Charles River Laboratories). […] Mice were monitored for tumor growth and overt tolerability over the course of the experiment. […] Tumor volume was calculated using the formula (L×W^2)/2, where L and W refer to the length and width dimensions, respectively. Tumor growth inhibition (TGI) was calculated using the formula (1−(VT/VC))×100, where VT is the tumor volume of the treatment group on the last day of treatment, and VC is the tumor volume of the control group on the last day of treatment. […]
The activity of Compound 1 in sarcoma PDX models was evaluated as described in Example H for PDX models. […] Three mice per group were analyzed. […]

CC(C)C(=O)N1CCC(c2cc(-c3ccc(NC(=O)c4cn(C(C)C)c(=O)n(-c5ccccn5)c4=O)cc3)c3c(N)ncnn23)CC1 [Compound 1, N-(4-(4-Amino-7-(1-isobutyrylpiperidin-4-yl)pyrrolo[1,2-f][1,2,4]triazin-5-yl)phenyl)-1-isopropyl-2,4-dioxo-3-(pyridin-2-yl)-1,2,3,4-tetrahydropyrimidine-5-carboxamide]
antitumor response: robust antitumor response
